In patent publication US8247211B2, “Glycopeptide antibiotics” (American Cyanamid Company, priority 2001, dated 2012):

How the values were obtained:
Staphylococcus sp. = assay: In vitro antibacterial evaluation: minimum inhibitory concentration (MIC), broth dilution method; type: cell-based; conditions: for MIC Staphylococcus haemolyticus (GC 4546): strain GC 4546; for MIC Coagulase Negative Staphylococcus (GC 4547): strain GC 4547; for MIC Coagulase Negative Staphylococcus (GC 4548): strain GC 4548; for MIC Coagulase Negative Staphylococcus (GC 4549): strain GC 4549; for MIC Coagulase Negative Staphylococcus (GC 4551): strain GC 4551; for MIC Coagulase Negative Staphylococcus (GC 6257): strain GC 6257
How it was run: (§1)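 First, organisms are seeded at 5×10^5 CFU/mL into Muller-Hinton II […]. Next, antibiotic is applied across 64-0.06 μg/mL by broth dilution (NCCLS M7-A2). Finally, the lowest inhibitory concentration is recorded as MIC.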

Enterococcus sp. = assay: as above; type: cell-based
How it was run: as §1

Escherichia coli = assay: as above; type: cell-based
How it was run: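 Using Muller-Hinton II […] and an inoculum of 5×10^5 CFU/mL, antibiotic dilutions from 64 down to 0.06 μg/mL were tested following NCCLS M7-A2. The MIC is the lowest concentration inhibiting growth, including in methicillin-, penicillin- or vancomycin-resistant clinical isolates.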

Streptococcus sp. = assay: as above; type: cell-based
How it was run: as §1

[1] = system: Staphylococcus aureus-SMITH (GC 4543); assay: Acute lethal infection in mice (ED50); type: in vivo; conditions: female CD-1 mice, intraperitoneal challenge, intravenous dose 30 min. after infection, 7 day survival ratios
How it was run: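 IP bacterial challenge, female CD-1 mice; inoculum lethal to untreated controls in 24-48 hr. IV dosing in saline or 5% dextrose 30 min post-infection, 5 mice/dose. ED50 from 7-day survival, 3 tests pooled.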

[2] = broth dilution, 18 hours at 35° C.

**Q.** Which “MIC Staphylococcus aureus (ATCC 29213)” value (Staphylococcus sp.; [2]) does the source give for “Tri-N-[(phenylmethoxy)carbonyl]-cyclo[glycyl-β-methylphenylalanyltyrosyl-3-(2-iminoimidazolidin-4-yl)seryl-3-(3-hexopyranosyl-2-iminoimidazolidin-4-yl)serylseryl] [Example 89]” here?
**A.** 64 µg/mL

**Q.** And the “MIC Staphylococcus aureus (GC 1131)” value (Staphylococcus sp.; [2])?
**A.** 64 µg/mL

**Q.** And the “MIC Staphylococcus aureus (GC 3051)” value (Staphylococcus sp.; [2])?
**A.** 64 µg/mL

**Q.** And the “MIC Staphylococcus aureus (GC 3053)” value (Staphylococcus sp.; [2])?
**A.** 64 µg/mL

**Q.** What about the “MIC Staphylococcus aureus (GC 4541)” value (Staphylococcus sp.; [2]) of the same substance?
**A.** 64 µg/mL

**Q.** What about the “MIC Staphylococcus aureus (GC 4542)” value (Staphylococcus sp.; [2]) of the same substance?
**A.** 64 µg/mL

**Q.** And the “MIC Staphylococcus aureus (GC 4544)” value (Staphylococcus sp.; [2])?
**A.** 64 µg/mL

**Q.** What about the “MIC Staphylococcus aureus (GC 4545)” value (Staphylococcus sp.; [2]) of the same substance?
**A.** 64 µg/mL

**Q.** What about the “MIC Staphylococcus aureus (ATCC 29213)” value (Staphylococcus sp.; strain ATCC 29213, broth dilution, 18 hours at 35° C.) of the same substance?
**A.** 64 µg/mL

**Q.** And the “MIC Staphylococcus aureus (GC 1131)” value (Staphylococcus sp.; strain GC 1131, broth dilution, 18 hours at 35° C.)?
**A.** 64 µg/mL

**Q.** And the “MIC Staphylococcus aureus (GC 3051)” value (Staphylococcus sp.; strain GC 3051, broth dilution, 18 hours at 35° C.)?
**A.** 64 µg/mL

**Q.** What about the “MIC Staphylococcus aureus (GC 3053)” value (Staphylococcus sp.; strain GC 3053, broth dilution, 18 hours at 35° C.) of the same substance?
**A.** 64 µg/mL

**Q.** And the “MIC Staphylococcus aureus (GC 4541)” value (Staphylococcus sp.; strain GC 4541, broth dilution, 18 hours at 35° C.)?
**A.** 64 µg/mL

**Q.** What about the “MIC Staphylococcus aureus (GC 4542)” value (Staphylococcus sp.; strain GC 4542, broth dilution, 18 hours at 35° C.) of the same substance?
**A.** 64 µg/mL

**Q.** What about the “MIC Staphylococcus aureus-SMITH (GC 4543)” value (Staphylococcus sp.; strain GC 4543, 18 hours at 35° C.) of the same substance?
**A.** 64 µg/mL

**Q.** And the “MIC Staphylococcus aureus (GC 4544)” value (Staphylococcus sp.; strain GC 4544, broth dilution, 18 hours at 35° C.)?
**A.** 64 µg/mL

**Q.** What about the “MIC Staphylococcus aureus (GC 4545)” value (Staphylococcus sp.; strain GC 4545, broth dilution, 18 hours at 35° C.) of the same substance?
**A.** 64 µg/mL

**Q.** What about the “MIC Staphylococcus haemolyticus (GC 4546)” value (Staphylococcus sp.) of the same substance?
**A.** 32 µg/mL

**Q.** And the “MIC Staphylococcus haemolyticus (GC 4546)” value (Staphylococcus sp.; [2])?
**A.** 32 µg/mL

**Q.** And the “MIC Coagulase Negative Staphylococcus (GC 4547)” value (Staphylococcus sp.)?
**A.** 32 µg/mL

**Q.** And the “MIC Coagulase Negative Staphylococcus (GC 4547)” value (Staphylococcus sp.; [2])?
**A.** 32 µg/mL

**Q.** What about the “MIC Coagulase Negative Staphylococcus (GC 4548)” value (Staphylococcus sp.) of the same substance?
**A.** 64 µg/mL

**Q.** And the “MIC Coagulase Negative Staphylococcus (GC 4548)” value (Staphylococcus sp.; [2])?
**A.** 64 µg/mL

**Q.** And the “MIC Coagulase Negative Staphylococcus (GC 4549)” value (Staphylococcus sp.)?
**A.** 64 µg/mL

**Q.** What about the “MIC Coagulase Negative Staphylococcus (GC 4549)” value (Staphylococcus sp.; [2]) of the same substance?
**A.** 64 µg/mL

**Q.** And the “MIC Coagulase Negative Staphylococcus (GC 4551)” value (Staphylococcus sp.)?
**A.** 64 µg/mL

**Q.** And the “MIC Coagulase Negative Staphylococcus (GC 4551)” value (Staphylococcus sp.; [2])?
**A.** 64 µg/mL

**Q.** What about the “MIC Coagulase Negative Staphylococcus (GC 6257)” value (Staphylococcus sp.) of the same substance?
**A.** 32 µg/mL

**Q.** What about the “MIC Coagulase Negative Staphylococcus (GC 6257)” value (Staphylococcus sp.; [2]) of the same substance?
**A.** 32 µg/mL

**Q.** And the “MIC Staphylococcus aureus-SMITH (GC 4543)” value (Staphylococcus sp.; strain SMITH GC 4543, broth dilution, 18 hours at 35° C.)?
**A.** 64 µg/mL

**Q.** What about the “MIC Enterococcus avium (GC 4558)” value (Enterococcus sp.; Enterococcus avium (GC 4558), broth dilution, 18 hours at 35° C.) of the same substance?
**A.** 32 µg/mL

**Q.** And the “MIC Enterococcus faecalis (ATCC 29212)” value (Enterococcus sp.; Enterococcus faecalis (ATCC 29212), broth dilution, 18 hours at 35° C.)?
**A.** 64 µg/mL

**Q.** What about the “MIC Enterococcus faecalis (GC 2242)” value (Enterococcus sp.; Enterococcus faecalis (GC 2242), broth dilution, 18 hours at 35° C.) of the same substance?
**A.** 64 µg/mL

**Q.** And the “MIC Enterococcus faecalis (GC 2691)” value (Enterococcus sp.; Enterococcus faecalis (GC 2691), broth dilution, 18 hours at 35° C.)?
**A.** 64 µg/mL

**Q.** And the “MIC Enterococcus faecalis (GC 3059)” value (Enterococcus sp.; Enterococcus faecalis (GC 3059), broth dilution, 18 hours at 35° C.)?
**A.** 64 µg/mL

**Q.** What about the “MIC Enterococcus faecalis (GC 4552)” value (Enterococcus sp.; Enterococcus faecalis (GC 4552), broth dilution, 18 hours at 35° C.) of the same substance?
**A.** 64 µg/mL

**Q.** What about the “MIC Enterococcus faecalis (GC 4553)” value (Enterococcus sp.; Enterococcus faecalis (GC 4553), broth dilution, 18 hours at 35° C.) of the same substance?
**A.** 64 µg/mL

**Q.** What about the “MIC Enterococcus faecalis (GC 4554)” value (Enterococcus sp.; Enterococcus faecalis (GC 4554), broth dilution, 18 hours at 35° C.) of the same substance?
**A.** 64 µg/mL

**Q.** And the “MIC Enterococcus faecalis (GC 6189)” value (Enterococcus sp.; Enterococcus faecalis (GC 6189), broth dilution, 18 hours at 35° C.)?
**A.** 64 µg/mL

**Q.** What about the “MIC Enterococcus faecium (GC 2243)” value (Enterococcus sp.; Enterococcus faecium (GC 2243), broth dilution, 18 hours at 35° C.) of the same substance?
**A.** 64 µg/mL

**Q.** What about the “MIC Enterococcus faecium (GC 4556)” value (Enterococcus sp.; Enterococcus faecium (GC 4556), broth dilution, 18 hours at 35° C.) of the same substance?
**A.** 64 µg/mL

**Q.** And the “MIC Enterococcus faecium (GC 4557)” value (Enterococcus sp.; Enterococcus faecium (GC 4557), broth dilution, 18 hours at 35° C.)?
**A.** 32 µg/mL

**Q.** And the “MIC Enterococcus faecalis (ATCC 29212)” value (Enterococcus sp.; strain ATCC 29212)?
**A.** 64 µg/mL

**Q.** And the “MIC Enterococcus faecalis (GC 2242)” value (Enterococcus sp.; strain GC 2242)?
**A.** 64 µg/mL

**Q.** What about the “MIC Enterococcus faecium (GC 2243)” value (Enterococcus sp.; strain GC 2243) of the same substance?
**A.** 64 µg/mL

**Q.** What about the “MIC Enterococcus faecalis (GC 2691)” value (Enterococcus sp.; strain GC 2691) of the same substance?
**A.** 64 µg/mL

**Q.** And the “MIC Enterococcus faecalis (GC 3059)” value (Enterococcus sp.; strain GC 3059)?
**A.** 64 µg/mL

**Q.** What about the “MIC Enterococcus faecalis (GC 4552)” value (Enterococcus sp.; strain GC 4552) of the same substance?
**A.** 64 µg/mL

**Q.** And the “MIC Enterococcus faecalis (GC 4553)” value (Enterococcus sp.; strain GC 4553)?
**A.** 64 µg/mL

**Q.** And the “MIC Enterococcus faecalis (GC 4554)” value (Enterococcus sp.; strain GC 4554)?
**A.** 64 µg/mL

**Q.** And the “MIC Enterococcus faecium (GC 4556)” value (Enterococcus sp.; strain GC 4556)?
**A.** 64 µg/mL

**Q.** What about the “MIC Enterococcus faecium (GC 4557)” value (Enterococcus sp.; strain GC 4557) of the same substance?
**A.** 32 µg/mL

**Q.** What about the “MIC Enterococcus avium (GC 4558)” value (Enterococcus sp.; strain GC 4558) of the same substance?
**A.** 32 µg/mL

**Q.** What about the “MIC Enterococcus faecalis (GC 6189)” value (Enterococcus sp.; strain GC 6189) of the same substance?
**A.** 64 µg/mL

**Q.** What about the “MIC Escherichia coli (ATCC 25922)” value (Escherichia coli; strain ATCC 25922) of the same substance?
**A.** >64 µg/mL

**Q.** And the “MIC Escherichia coli (GC 4559)” value (Escherichia coli; strain GC 4559)?
**A.** >64 µg/mL

**Q.** And the “MIC Escherichia coli (GC 4560)” value (Escherichia coli; strain GC 4560)?
**A.** 32 µg/mL

**Q.** What about the “MIC Streptococcus agalactiae (GC 4564)” value (Streptococcus sp.; Streptococcus agalactiae (GC 4564), broth dilution, 18 hours at 35° C.) of the same substance?
**A.** 32 µg/mL

**Q.** What about the “MIC Streptococcus pneumoniae (ATCC 6301)” value (Streptococcus sp.; Streptococcus pneumoniae (ATCC 6301), broth dilution, 18 hours at 35° C.) of the same substance?
**A.** 16 µg/mL

**Q.** What about the “MIC Streptococcus pneumoniae (GC 1894)” value (Streptococcus sp.; Streptococcus pneumoniae (GC 1894), broth dilution, 18 hours at 35° C.) of the same substance?
**A.** 4 µg/mL

**Q.** What about the “MIC Streptococcus pneumoniae (GC 4565)” value (Streptococcus sp.; Streptococcus pneumoniae (GC 4565), broth dilution, 18 hours at 35° C.) of the same substance?
**A.** 8 µg/mL

**Q.** What about the “MIC Streptococcus pyogenes (GC 4563)” value (Streptococcus sp.; Streptococcus pyogenes (GC 4563), broth dilution, 18 hours at 35° C.) of the same substance?
**A.** 32 µg/mL

**Q.** And the “MIC Streptococcus pneumoniae (ATCC 6301)” value (Streptococcus sp.; strain ATCC 6301)?
**A.** 16 µg/mL

**Q.** And the “MIC Streptococcus pneumoniae (GC 1894)” value (Streptococcus sp.; strain GC 1894)?
**A.** 4 µg/mL

**Q.** What about the “MIC Streptococcus pyogenes (GC 4563)” value (Streptococcus sp.; strain GC 4563) of the same substance?
**A.** 32 µg/mL

**Q.** What about the “MIC Streptococcus agalactiae (GC 4564)” value (Streptococcus sp.; strain GC 4564) of the same substance?
**A.** 32 µg/mL

**Q.** And the “MIC Streptococcus pneumoniae (GC 4565)” value (Streptococcus sp.; strain GC 4565)?
**A.** 8 µg/mL

**Q.** What about the “median effective dose (ED50), Staphylococcus aureus-SMITH (GC 4543)” value [1] of the same substance?
**A.** >8
